The source made the active and inactive calls. The rule behind the calls is not given here.
Tests used:
[1] = system: KB; assay: Cytotoxicity against human KB cells at 10 ug/mL; type: functional, cell-based
[2] = system: LoVo; assay: Cytotoxicity against human LoVo cells at 10 ug/mL; type: functional, cell-based

C#CCCC[C@H]1OC(=O)[C@H]([C@@H](C)CC)NC(=O)[C@@H]2CCCN2C(=O)[C@H](Cc2ccccc2)OC(=O)[C@H](C(C)C)N(C)C(=O)[C@H](C(C)C)NC(=O)[C@H]1C
Activity [1]: inactive | Activity [2]: inactive
